Measured values reported in patent US9611314B2, “Functional peptide analogs of PEDF” (The Penn State Research Foundation, priority 2013, dated 2017).
Values belong to the molecule of their own block, whether it stands above or below them. Where a SMILES comes first, the peptide text is derived from it. Where no end group is shown, it is not given here. [ ]: non-standard residue; d: D form. The star is where a group is joined. 1Nal = N[C@@H](Cc1cccc2ccccc12)C(=O)O; AEEA = NCCOCCOCC(=O)O; Butyryl = CCCC(=O)*

Columns and labels:
[1] = Peptide bioavailability in mouse vitreous after 5 μg eye drop (MALDI TOF); type: in vivo, C57BL/6 mice; settings: compared to P78 and SpxA1
Protocol: Before the longitudinal efficacy studies were carried out in vivo, the bioavailability of the five analogs was examined in comparison to the parent compound P78 and its active 29-mer derivative, SpxA1.
Bioavailability of each peptide was determined in vitreous samples obtained at various time points after eye drops were given. Vitreous samples were harvested from enucleated eyes and immediately analyzed by mass spectrometry. Spectral intensities were compared to spectra of known concentrations of each analog to calculate amounts of peptides reaching the vitreous. The eye drops administered to normal mouse eyes contained 5 μg of the test compound. Bioavailability was studied at three time points: 1, 4, 6 hr using four animals/time point (n=8 eyes). The vitreous was rapidly dissected from each group after the drops were given and immediately analyzed by MALDI TOF.

VEGFA = VEGFA secretion by RPE cells, Luminex; type: cell-based, human; settings: for effect in reducing VEGFA levels compared to P78: 25 nM peptide, serum starvation
Protocol: (§1) The analogs were tested for their efficacy in reducing levels of TNFα, IFNγ, VEGF-A and increasing cell viability in in vitro assays. Efficacy was compared to both non-treated oxidative stressed controls and the control standard P78.
(§2) Briefly, to test efficacy of the compounds in preventing cell death, experiments were performed to screen for the ability of each analog to: 1) increase cellular bioenergetic levels in an ATP assay and 2) reduce cell death in an LDH assay. To test the action of each analog on inflammatory processes, Luminex bead arrays were used to examine the ability of each analog to decrease production of inflammatory cytokines. To test for the potential of each analog to reduce vascular leakage, qPCR was used to examine the ability of each analog to increase mRNA levels of ZO1 and occludin, two junction proteins essential to vascular integrity. To test peptide stability in the vitreous, the analogs were incubated with dissected vitreous humor and the samples were analyzed at various time points using Maldi-TOF. These tests allowed for the systematic selection of analogs having the least toxicity and the strongest potential to reduce pathology in vivo.
Experiments were designed to assess the effects of each peptide compared to P78 on the inflammatory and vascular permeability/angiogenesis cytokines TNFα, IFNγ, and VEGFA. Briefly, human retinal RPE cells were grown to ˜75% confluency in 10% serum containing medium. The cells were then exposed to serum starvation in the presence or absence (control) of 25 nM of each peptide including the prototype P78 and the active fragment of P78, SpxA1. The supernatant from each treatment was tested for effects on the secretion of TNFα, IFNγ, and VEGFA. The data represent the percent change to the control samples and p values are given for each peptide in relationship to the P78 treatment (FIGS. 3A through 3B).

RPE cultures = experiment: In vitro tests of inflammation, angiogenesis and cell viability, summarised together; type: cell-based, human; settings: assays other than VEGFA
Protocol: as §1
The analogs disclosed in Table 1 were assayed for improved stability and efficacy in in vitro assays for inflammation, angiogenesis, and cell death, which are the three leading pathological features of diabetic retinopathy.
as §2, with “These tests allowed for the systematic selection of analogs having the least toxicity and the strongest potential to reduce pathology in vivo.” left out

human ARPE19 cells = experiment: Cell viability by ATP levels (CellTiter-Glo), serum starvation or H2O2; type: cell-based; settings: for ATP viability tests: selection for in vivo studies: serum starvation and 300 uM H2O2, 25 nM peptide, 48 hr
Protocol: as §1, §2
The effects of the peptides to increase cell viability by increasing levels of ATP were tested in two models of cell death: (i) serum starvation; (ii) oxidative stress caused by hydrogen peroxide toxicity (300 uM). With respect to serum starvation, human ARPE19 cells were grown to ˜85% confluency in 10% serum containing medium after which the cells were placed in serum-free medium for 48 hr in the presence or absence (control) of 25 nM of each peptide. For ATP assay, CellTiter-Glo® reagents were used and luminescence was determined after 12 min spectrophotometrically (n=4) (FIG. 2A). With respect to oxidative stress, human ARPE19 cells were grown to ˜85% confluency in 10% serum containing medium. The cells were then treated with 300 uM H2O2 for 48 hours in the presence or absence (control) of 25 nM of each peptide. Levels of ATP were measured and % luminescence to controls and P78 was quantitated (n=4). Changes to ATP levels are plotted against control values and p values are given to P78 (FIG. 2B).

ZO1 and occludin = experiment: qPCR of tight junction mRNA (potential to reduce vascular leakage); type: cell-based; settings: compared to P78 and SpxA1
Protocol: as §2
To test for the potential of each peptide (81-2, 81-5, 81-12, 81-13 and 81-20) to reduce vascular leakage, qPCR was used to examine the ability of each analog to increase mRNA levels of Z01, a junction protein essential to vascular integrity (FIG. 4A).

HUVEC = experiment: VEGF-mediated HUVEC tube formation on human dermal fibroblasts; type: cell-based; settings: 100 nM peptide, 4 ng/ml VEGF, 12 days; compared to VEGF
Protocol: Human dermal fibroblasts were cultured at 1×10^5/well in IncuCyte seeding medium (Essen Bioscience) in 96 wells plates for 1 hr. Medium was removed and replaced with complete IncuCyte growth medium (Essen Bioscience). Human umbilical vein endothelial cells (HUVEC) containing a green fluorescent marker (HUVEC CytoLight green) cells at 2000 cells/well were/well to attached dermal fibroblasts cultures and placed in the IncuCyte Zoom fluorescent and phase contrast multiplex imaging incubator (Essen BioScience). Twenty four hours later 4 ng/ml VEGF was added to all wells and 100 nM/ml PEDF peptides added to test wells. Cultures containing VEGF alone were used as positive controls and those containing 100 μM Suramin (VEGF inhibitor) used as negative controls. The cultures were placed at 37° C. in the Incucyte Zoom and HUVEC tube length networks measured over a 12 day incubation period using the Incucyte CellPlayer Angiogenesis software module and interface systems. Media was refreshed every 3-4 days.

in vivo = experiment: in vivo; set-up: species or system rodents; settings: topical or ocular, 2 ug
Protocol: In addition, bioavailability studies of the peptides in rodent eyes were conducted and the results were compared to the control standard P78 peptide. For example, the peptides were tested in bioavailability studies in rodents at 1, 2, 4, 8 hrs (n=4 each peptide/time pt). The animals were given a single eye drop containing 2 μg of each peptide. At each time point the animals were sacrificed, vitreous harvested, and bioavailability assessed by Maldi TOF.

VEGF = experiment: Vitreous VEGF after 15 wks eye drops (Luminex); type: in vivo, Ins2Akita mouse; settings: 5 μg eye drop 2×/wk for 15 wks, relative to diabetic controls
Protocol: From the in vitro P78 peptide analog screening studies, five structurally diverse analogs with best biological activity were selected to test their efficacy in the diabetic mouse eye. In vivo effects of these peptides were tested in the Ins2Akita mouse model of DR, a well-characterized DR model that has a mutation in the insulin gene. Heterozygote Ins2Akita mice (Jackson Lab) become hyperglycemic (HG) at ˜4.5 wks of age. RGC death and inflammation occur within the first 4-6 wks of DR and vascular pathology is first noticed ˜13 wks after the onset of diabetes. The studies were designed to identify peptide candidates with pleotrophic effects on cell death, inflammation, and vascular leakage in the diabetic retina.
Male hyperglycemic mice with blood glucose levels >300 mg/dL were used and treatments carried as previously described for P78 (Liu et al., 2012, Mol. Med., 18(1): 1387-1401). Diabetic mice were treated 2×/wk for 15 wks at the onset of HG using a single dose of 5 μg/5 μl artificial tears for each drug, a dose at which P78 is effective. Both eyes received the same treatment to avoid drug cross contamination between the eyes of an individual animal. […]
Levels of VEGF were also quantitated in the vitreous of the 15 wks peptide treated and control groups using the Luminex bead technology. […]

TNFα = TNFα secretion by RPE cells, Luminex; type: cell-based, human
Protocol: as §1, §2
(§3) Experiments were designed to assess the effects of each peptide compared to P78 on the inflammatory and vascular permeability/angiogenesis cytokines TNFα, IFNγ, and VEGFA. […]

IFNγ = IFNγ secretion by RPE cells, Luminex; type: cell-based, human
Protocol: as §1, §2, §3

[2] = change versus control standard P78
[3] = change versus non-treated stressed control (C)

Molecule: FGADERTESIIHR [Peptide 81-19]
- effect in reducing VEGFA levels compared to P78 (VEGFA): significantly better effects in reducing VEGFA levels
- effect on the other assays compared to P78 (RPE cultures): less effective than P78

Molecule: L-1-NALGADERTESIIHR ([1Nal]GADERTESIIHR) [Peptide 81-20]
- ATP viability tests: selection for in vivo studies (human ARPE19 cells): good candidates for the in vivo studies
- ZO1 mRNA expression (ZO1 and occludin): higher expression of ZO1 compared to P78 and SpxA1
- inhibition of HUVEC tube formation (HUVEC): prevented tube formation compared to VEGF but less effective

Molecule: VLLSPLSVATALSAISIGADARTASIIHR [Peptide 81-10]
- effect in reducing VEGFA levels compared to P78 (VEGFA): significantly better effects in reducing VEGFA levels
- effect on the other assays compared to P78 (RPE cultures): less effective than P78

Molecule: {BA*}NFGYDLYRVRSSMSPTTNSALSLGADERTESIIHR{PEG*} (not fully specified (N-terminus, C-terminus); printed as {BA*}NFGYDLYRVRSSMSPTTNSALSLGADERTESIIHR{PEG*}) [Peptide 81-12, P60 + 81-1, butyric acid at N-terminus, PEGylated at C-terminus]
- ATP viability tests: selection for in vivo studies (human ARPE19 cells): good candidates for the in vivo studies
- ZO1 mRNA expression (ZO1 and occludin): higher expression of ZO1 compared to P78 and SpxA1
- VEGF levels in the vitreous (VEGF): slightly but significantly more effective
- inhibition of HUVEC tube formation (HUVEC): prevented tube formation compared to VEGF but less effective

Molecule: {BA*}VLLSPLSVATALSAISIGADARTASIIHR{PEG*} (VLLSPLSVATALSAISIGADARTASIIHR[AEEA]; not fully specified (N-terminus); printed as {BA*}VLLSPLSVATALSAISIGADARTASIIHR{PEG*}) [Peptide 81-4, butyric acid on N-terminus, PEG2-CH2COOH at C-terminus]
- *TNFα % to P78 (TNFα; [2]): −8%
- *TNFα % to C (TNFα; [3]): −2%
- *IFNγ % to P78 (IFNγ; [2]): −11%
- *IFNγ % to C (IFNγ; [3]): −15%
- *VEGF % to P78 (VEGFA; [2]): −0%
- *VEGF % to C (VEGFA; [3]): −11%
- *ATP % to P78 (human ARPE19 cells; [2]): 9%
- *ATP % to C (human ARPE19 cells; [3]): +7%

The next lines start with the values.

- stability profile in the vitreous after 6 hr [1]: best stability profile
Molecule: CCCC(=O)N[C@@H](CO)C(=O)N[C@@H](C)C(=O)N[C@H](C(=O)N[C@@H](CO)C(=O)N[C@H](C(=O)NCC(=O)N[C@@H](C)C(=O)N[C@@H](CC(=O)O)C(=O)N[C@@H](C)C(=O)N[C@@H](CCCNC(=N)N)C(=O)N[C@H](C(=O)N[C@@H](C)C(=O)N[C@@H](CO)C(=O)N[C@H](C(=O)N[C@H](C(=O)N[C@@H](Cc1c[nH]cn1)C(=O)N[C@@H](CCCNC(=N)N)C(=O)NCCOCCOCC(=O)O)[C@@H](C)CC)[C@@H](C)CC)[C@@H](C)O)[C@@H](C)CC)[C@@H](C)CC [Peptide 81-5, {BA*}SAISIGADARTASIIHR{PEG*}] (Butyryl-SAISIGADARTASIIHR[AEEA]-OH)

- level at 4 h (in vivo): 2280 ng/mL
Molecule: SAISIGADARTASIIHR [Peptide 81-3, SAISIGADARTASIIHR]

- level at 4 h (in vivo): 2000 ng/mL
Molecule: SAISIGADERTESIIHR [Peptide 81-2, SAISIGADERTESIIHR]

- level at 4 h (in vivo): 1800 ng/mL
Molecule: SALSLGADERTESIIHR [Peptide 81-1, SALSLGADERTESIIHR]

- level at 4 h (in vivo): 920 ng/mL
Molecule: VLLSPLSVATALSALSLGADERTESIIHR [SpxA1]

- level at 4 h (in vivo): 1200 ng/mL
Molecule: VLLSPLSVATALSALSLGADERTESIIHRALYYDLISSPDIHGT [Peptide P-78, reference compound]
